Experimental data: patent US6737383B1, “Herbicidal oxadiazolidines” (priority 1999, dated 2004)

What was measured:
sugar beet = test: Test B pre/postemergence sugar beet; assay type: in vivo, Beta vulgaris
Outline: (§1)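 Herbicidal effect was estimated by eye on a ten-point control scale after plants spent twelve to sixteen days in a greenhouse following soil or foliar treatment. Foliar sprays targeted plants at one to four leaves; all doses were formulated in a non-phytotoxic solvent with surfactant.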

blackgrass = test: Test B pre/postemergence blackgrass; assay type: in vivo, Alopecurus myosuroides
Outline: as §1

wheat = test: Test B pre/postemergence wheat; assay type: in vivo, Triticum aestivum
Outline: as §1

smallflower flatsedge = test: Test B flood test smallflower flatsedge; assay type: in vivo, Cyperus difformis
Outline: (§2)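 Each value is a visual injury score relative to controls, with 10 meaning complete control and 0 no effect. Evaluation took place twelve to sixteen days after the 2-leaf-stage plants were treated and kept in the greenhouse.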

giant foxtail = test: Test B pre/postemergence giant foxtail; assay type: in vivo, Setaria faberii
Outline: as §1

rice = test: Test B flood test rice; assay type: in vivo, Oryza sativa
Outline: as §2

surinam grass = test: Test B pre/postemergence surinam grass; assay type: in vivo, Brachiaria decumbens
Outline: as §1

soybean = test: Test B pre/postemergence soybean; assay type: in vivo, Glycine max
Outline: as §1

corn = test: Test B pre/postemergence corn; assay type: in vivo, Zea mays
Outline: as §1

pigweed = test: Test B pre/postemergence pigweed; assay type: in vivo, Amaranthus retroflexus
Outline: as §1

velvetleaf = test: Test B pre/postemergence velvetleaf; assay type: in vivo, Abutilon theophrasti
Outline: as §1

duck salad = test: Test B flood test duck salad; assay type: in vivo, Heteranthera limosa
Outline: as §2

purple nutsedge = test: Test B pre/postemergence purple nutsedge; assay type: in vivo, Cyperus rotundus
Outline: as §1

bamyardgrass = test: Test B flood test barnyardgrass; assay type: in vivo, Echinochloa crus-galli
Outline: as §2

wild oat = test: Test B pre/postemergence wild oat; assay type: in vivo, Avena fatua
Outline: as §1

crabgrass = test: Test B pre/postemergence crabgrass; assay type: in vivo, Digitaria sanguinalis
Outline: as §1

morningglory = test: Test B pre/postemergence morningglory; assay type: in vivo, Ipomoea hederacea
Outline: as §1

rape = test: Test B pre/postemergence rape; assay type: in vivo, Brassica napus
Outline: as §1

cocklebur = test: Test B pre/postemergence cocklebur; assay type: in vivo, Xanthium strumarium
Outline: as §1

[1] = Postemergence, Rate 62 g/ha, scale 0 to 10, 0 is no effect, 10 is complete control
[2] = Postemergence, Rate 125 g/ha, scale of 0 to 10 where 0 is no effect and 10 is complete control
[3] = Preemergence, Rate 62 g/ha, scale of 0 to 10 where 0 is no effect and 10 is complete control
[4] = Preemergence, Rate 125 g/ha, scale of 0 to 10 where 0 is no effect and 10 is complete control
[5] = Preemergence, Rate 250 g/ha, scale 0 to 10 (0 no effect, 10 complete control)
[6] = Preemergence, Rate 500 g/ha, scale of 0 to 10 where 0 is no effect and 10 is complete control
[7] = Rate 500 g/ha, Postemergence, scale 0 to 10, 0 is no effect, 10 is complete control
[8] = Postemergence, Rate 250 g/ha, scale of 0 to 10, 0 is no effect, 10 is complete control
[9] = Rate 62 g/ha, flood test species, Pre-emergence, visual evaluation after twelve to sixteen days
[10] = Rate 125 g/ha, under heading Pre-emergence, flood test species, visual evaluation after twelve to sixteen days
[11] = Rate 250 g/ha, Pre-emergence (flood test species), scale 0 to 10, 0 is no effect, 10 is complete control
[12] = Rate 500 g/ha, Pre-emergence section of Table B, 0 to 10 scale (0 no effect, 10 complete control)

CC(C)N(C(=O)n1oc(=O)n(C(C)C)c1=O)c1ccncc1 [Compound 663]
Plant response rating, Sugarbeets (sugar beet; [1]): 0
Sugarbeets plant response rating (sugar beet; [2]): 0
Sugarbeets plant response rating (sugar beet; [3]): 0
Sugarbeets plant response rating (sugar beet; [4]): 0
Plant response rating, Sugarbeets (sugar beet; [5]): 0
Plant response rating, Sugarbeets (sugar beet; [6]): 0
Sugarbeets plant response rating (sugar beet; [7]): 4
Plant response rating, Blackgrass (blackgrass; [1]): 0
Blackgrass plant response rating (blackgrass; [2]): 0
Blackgrass plant response rating (blackgrass; [8]): 0
Blackgrass plant response rating (blackgrass; [3]): 0
Blackgrass plant response rating (blackgrass; [4]): 0
Plant response rating, Blackgrass (blackgrass; [5]): 0
Plant response rating, Blackgrass (blackgrass; [6]): 0
Blackgrass plant response rating (blackgrass; [7]): 2
Plant response rating, Wheat (wheat; [1]): 0
Wheat plant response rating (wheat; [2]): 0
Wheat plant response rating (wheat; [3]): 0
Wheat plant response rating (wheat; [4]): 0
Plant response rating, Wheat (wheat; [5]): 0
Plant response rating, Wheat (wheat; [6]): 3
Wheat plant response rating (wheat; [7]): 0
Plant response rating, S. Flatsedge (0 to 10 scale, 0 is no effect, 10 is complete control) (smallflower flatsedge; [9]): 0
S. Flatsedge plant response rating (0 to 10 scale, 0 is no effect, 10 is complete control) (smallflower flatsedge; [10]): 0
S. Flatsedge plant response rating (smallflower flatsedge; [11]): 0
S. Flatsedge plant response rating (smallflower flatsedge; [12]): 0
Plant response rating, Giant foxtail (giant foxtail; [1]): 0
Giant foxtail plant response rating (giant foxtail; [2]): 0
Giant foxtail plant response rating (giant foxtail; [8]): 0
Giant foxtail plant response rating (giant foxtail; [3]): 0
Giant foxtail plant response rating (giant foxtail; [4]): 3
Plant response rating, Giant foxtail (giant foxtail; [5]): 5
Plant response rating, Giant foxtail (giant foxtail; [6]): 9
Giant foxtail plant response rating (giant foxtail; [7]): 4
Plant response rating, Rice (0 to 10 scale, 0 is no effect, 10 is complete control) (rice; [9]): 0
Rice plant response rating (0 to 10 scale, 0 is no effect, 10 is complete control) (rice; [10]): 0
Rice plant response rating (rice; [11]): 0
Rice plant response rating (rice; [12]): 0
Plant response rating, B. signalgrass (surinam grass; [1]): 0
Plant response rating, B. signalgrass (surinam grass; [2]): 0
B. signalgrass plant response rating (surinam grass; [8]): 0
B. signalgrass plant response rating (surinam grass; [3]): 0
B. signalgrass plant response rating (surinam grass; [4]): 0
Plant response rating, B. signalgrass (surinam grass; [5]): 0
Plant response rating, B. signalgrass (surinam grass; [6]): 0
B. signalgrass plant response rating (surinam grass; [7]): 0
Soybean plant response rating (soybean; [2]): 0
Soybean plant response rating (soybean; [3]): 0
Soybean plant response rating (soybean; [4]): 0
Plant response rating, Soybean (soybean; [5]): 0
Plant response rating, Soybean (soybean; [6]): 2
Plant response rating, Corn (corn; [1]): 0
Corn plant response rating (corn; [2]): 0
Corn plant response rating (corn; [8]): 0
Corn plant response rating (corn; [3]): 0
Corn plant response rating (corn; [4]): 0
Plant response rating, Corn (corn; [5]): 0
Plant response rating, Corn (corn; [6]): 0
Corn plant response rating (corn; [7]): 0
Plant response rating, Redroot pigweed (pigweed; [1]): 0
Redroot pigweed plant response rating (pigweed; [2]): 0
Redroot pigweed plant response rating (pigweed; [3]): 0
Redroot pigweed plant response rating (pigweed; [4]): 0
Plant response rating, Redroot pigweed (pigweed; [5]): 7
Plant response rating, Redroot pigweed (pigweed; [6]): 7
Redroot pigweed plant response rating (pigweed; [7]): 0
Plant response rating, Velvetleaf (velvetleaf; [1]): 0
Velvetleaf plant response rating (velvetleaf; [2]): 0
Velvetleaf plant response rating (velvetleaf; [3]): 0
Velvetleaf plant response rating (velvetleaf; [4]): 0
Plant response rating, Velvetleaf (velvetleaf; [5]): 0
Plant response rating, Velvetleaf (velvetleaf; [6]): 3
Velvetleaf plant response rating (velvetleaf; [7]): 2
Plant response rating, Ducksalad (0 to 10 scale, 0 is no effect, 10 is complete control) (duck salad; [9]): 0
Ducksalad plant response rating (0 to 10 scale, 0 is no effect, 10 is complete control) (duck salad; [10]): 0
Ducksalad plant response rating (duck salad; [11]): 0
Ducksalad plant response rating (duck salad; [12]): 0
Plant response rating, Nutsedge (purple nutsedge; [1]): 0
Nutsedge plant response rating (purple nutsedge; [2]): 0
Nutsedge plant response rating (purple nutsedge; [3]): 0
Nutsedge plant response rating (purple nutsedge; [4]): 0
Plant response rating, Nutsedge (purple nutsedge; [5]): 0
Plant response rating, Nutsedge (purple nutsedge; [6]): 0
Nutsedge plant response rating (purple nutsedge; [7]): 0
Plant response rating, Barnyardgrass (0 to 10 scale, 0 is no effect, 10 is complete control) (bamyardgrass; [9]): 0
Barnyardgrass plant response rating (0 to 10 scale, 0 is no effect, 10 is complete control) (bamyardgrass; [10]): 0
Barnyardgrass plant response rating (bamyardgrass; [11]): 0
Barnyardgrass plant response rating (bamyardgrass; [12]): 0
Plant response rating, Wild oats (wild oat; [1]): 0
Wild oats plant response rating (wild oat; [2]): 0
Wild oats plant response rating (wild oat; [3]): 0
Wild oats plant response rating (wild oat; [4]): 0
Plant response rating, Wild oats (wild oat; [5]): 0
Plant response rating, Wild oats (wild oat; [6]): 0
Wild oats plant response rating (wild oat; [7]): 0
Plant response rating, Crabgrass (crabgrass; [1]): 0
Crabgrass plant response rating (crabgrass; [2]): 0
Crabgrass plant response rating (crabgrass; [8]): 0
Crabgrass plant response rating (crabgrass; [3]): 0
Crabgrass plant response rating (crabgrass; [4]): 0
Plant response rating, Crabgrass (crabgrass; [5]): 0
Plant response rating, Crabgrass (crabgrass; [6]): 0
Crabgrass plant response rating (crabgrass; [7]): 4
Plant response rating, Morningglory (morningglory; [1]): 0
Morningglory plant response rating (morningglory; [2]): 0
Morningglory plant response rating (morningglory; [8]): 4
Morningglory plant response rating (morningglory; [3]): 0
Morningglory plant response rating (morningglory; [4]): 0
Plant response rating, Morningglory (morningglory; [5]): 0
Plant response rating, Morningglory (morningglory; [6]): 7
Morningglory plant response rating (morningglory; [7]): 4
Plant response rating, Rape (rape; [1]): 0
Rape plant response rating (rape; [2]): 0
Rape plant response rating (rape; [3]): 0
Rape plant response rating (rape; [4]): 0
Plant response rating, Rape (rape; [5]): 0
Plant response rating, Rape (rape; [6]): 4
Rape plant response rating (rape; [7]): 0
Plant response rating, Cocklebur (cocklebur; [1]): 0
Cocklebur plant response rating (cocklebur; [2]): 0
Cocklebur plant response rating (cocklebur; [8]): 0
Cocklebur plant response rating (cocklebur; [3]): 0
Cocklebur plant response rating (cocklebur; [4]): 0
Plant response rating, Cocklebur (cocklebur; [5]): 0
Plant response rating, Cocklebur (cocklebur; [6]): 0
Cocklebur plant response rating (cocklebur; [7]): 2
